From US7524936B2, “Mitogenic oxygenase regulators” (Emory University, priority 2000, dated 2009)

B1: p67phox: recombinant human cytosolic factor of the phagocyte respiratory-burst oxidase (protein, UniProt P19878 1-526, looked up)
Neutrophil cytosol factor 2: MSLVEAISLWNEGVLAADKKDWKGALDAFSAVQDPHSRICFNIGCMYTILKNMTEAEKAFTRSINRDKHLAVAYFQRGMLYYQTEKYDLAIKDLKEALIQLRGNQLIDYKILGLQFKLFACEVLYNIAFMYAKKEEWKKAEEQLALATSMKSEPRHSKIDKAMECVWKQKLYEPVVIPVGKLFRPNERQVAQLAKKDYLGKATVVASVVDQDSFSGFAPLQPQAAEPPPRPKTPEIFRALEGEAHRVLFGFVPETKEELQVMPGNIVFVLKKGNDNWATVMFNGQKGLVPCNYLEPVELRIHPQQQPQEESSPQSDIPAPPSSKAPGRPQLSPGQKQKEEPKEVKLSVPMPYTLKVHYKYTVVMKTQPGLPYSQVRDMVSKKLELRLEHTKLSYRPRDSNELVPLSEDSMKDAWGQVKNYCLTLWCENTVGDQGFPDEPKESEKADANNQTTEPQLKKGSQVEALFSYEATQPEDLEFQEGDIILVLSKVNEEWLEGECKGKVGIFPKVFVEDCATTDLESTRREV
B2: p47phox: recombinant human cytosolic factor of the phagocyte respiratory-burst oxidase (protein, UniProt P14598 1-390, looked up)
Neutrophil cytosol factor 1: MGDTFIRHIALLGFEKRFVPSQHYVYMFLVKWQDLSEKVVYRRFTEIYEFHKTLKEMFPIEAGAINPENRIIPHLPAPKWFDGQRAAENRQGTLTEYCSTLMSLPTKISRCPHLLDFFKVRPDDLKLPTDNQTKKPETYLMPKDGKSTATDITGPIILQTYRAIANYEKTSGSEMALSTGDVVEVVEKSESGWWFCQMKAKRGWIPASFLEPLDSPDETEDPEPNYAGEPYVAIKAYTAVEGDEVSLLEGEAVEVIHKLLDGWWVIRKDDVTGYFPSMYLQKSGQDVSQAQRQIKRGAPPRRSSIRNAHSIHQRSRKRLSQDAYRRNSVRFLQQRRRQARPGPQSPGSPLEEERQTQRSKPQPAVPPRPSADLILNRCSESTKRKLASAV

Legend:
[1] = test system: Nox 4 enzyme and Nox 5 enzyme; test: cell-free assay for Nox 4 / Nox 5 NADPH-oxidase activity (NADPH-dependent chemiluminescence); format: biochemical, human; conditions: MgCl2 1-5 mM; cell lysate, 200 μM NADPH, 10 μM lucigenin, 37° C.
Experimental: In an alternate and preferred embodiment of the present invention, cells that are stably transfected with Nox 4 (YA28), Nox 5 (YA28) or with empty vector (NEF2) are grown in 10 cm tissue culture plates in medium containing DMEM, 10% calf serum, 100 units/ml penicillin, 100 μg/ml streptomycin, and 1 μg/ml puromycin to approximately 80% confluency. Cells (five tissue culture plates of each cell type) are washed briefly with 5 ml phosphate buffered saline (PBS) then dissociated from the plates with PBS containing 5 mM EDTA. Cells are pelleted by centrifuging briefly at 1000×g.
To permeabilize the cells, freeze thaw lysis is carried out and this is followed by passage of the cell material through a small bore needle. The supernatant is removed and the cells are frozen on dry ice for 15 minutes. […]
The cell lysates are assayed for protein concentration using the BioRad protein assay system. […] The reaction is initiated by adding 1.5 mM NADPH and 75 μM lucigenin to the assay mix to give a final concentration of 200 μM NADPH and 10 μM lucigenin, and the chemiluminescence is monitored immediately. […] The plate is monitored continuously for 60 minutes and the maximal relative luminescence unit (RLU) value for each sample is used for the graph. […]

[2] = test system: lysates of NIH 3T3 cells stably transfected with the human Nox 4 gene or human Nox 5 gene; test: NADPH-dependent superoxide generation, lucigenin luminescence assay in cell lysates; format: biochemical; conditions: 30 μg cell lysate, 200 μM NADPH, 500 μM lucigenin
Experimental: In one embodiment of the present invention, NIH 3T3 cells stably transfected with the human Nox 4 gene (SEQ ID NO:1) or human Nox 5 gene (SEQ ID NO:3) are analyzed for superoxide generation using the lucigenin (Bis-N-methylacridinium luminescence assay (Sigma, St. Louis, Mo., Li et al. (1998) J. Biol. Chem. 273, 2015-2023). Cells are washed with cold HANKS' solution and homogenized on ice in HANKS' buffer containing 15% sucrose using a Dounce homogenizer. Cell lysates are frozen immediately in a dry ice/ethanol bath. For the assay, 30 μg of cell lysate is mixed with 200 μM NADPH and 500 μM lucigenin. Luminescence is monitored using a LumiCounter (Packard) at three successive one minute intervals and the highest value was used for comparison. Protein concentration is determined by the Bradford method.
Superoxide generation is monitored in lysates from some of the stably transfected cell lines and is compared with superoxide generation by the untransfected NIH 3T3 cell lysates.

Molecule	enhancement of NADPH-oxidase activity [1]	luminescent signal (superoxide generation) [2]
[Cl-].[Cl-].[Mg+2] [MgCl2]	about 2 fold	
c1ccc2c(c1)[I+]c1ccccc1-2 [diphenylene iodonium, reference compound]		inhibited
superoxide dismutase [reference compound]		inhibited
B1		unaffected
B2		unaffected
